According to patent US9359378B2, “Substituted oxazolo[3,4-a]pyrazines as pharmaceutcals” (BIOLAB SANUS FARMACÊUTICA LTDA., priority 2014, dated 2016):

How the values were obtained:
Assay type in all cases: biochemical
PDE10A2 = target: T1, PDE10A2 (Homo sapiens, UniProt Q9Y233); assay: PDE10A2 enzyme inhibition (HTRF, cAMP substrate); conditions: human recombinant enzyme (Sf9); FIG. 14; test concentration not given
T1 construct: host or cells: Sf9
Text: (§1) The effects of the BL-230 and BL-236 compounds on the activity of the human enzymes PDE2A1, PDE3A, PDE4A1A, PDE4B1, PDE7A, PDE8A1, and PDE10A2 and PDE11A4 were quantified by measuring the production of adenosine 5′-monophosphate (5′AMP) from cyclic adenosine monophosphate (cAMP), with human recombinant enzyme expressed in Sf9 cells and the detection method was by using HTRF®.
(§2) The test compound, the reference compound or water (control) were mixed with the enzyme (the enzymes and their amounts used are described in Table 1) in a buffer containing 44.4 mM Tris-HCl, 5.28 mM MgCl2, 2.64 mM DTT and 0.044% Tween® 20 (pH 7.8). Then, the reaction was initiated by the addition of 40 nM of cAMP substrate and the mixture was incubated for 30 minutes at room temperature. For basal control measurements, the enzyme was omitted from the reaction mixture. The fluorescence acceptor (Dye2 labeled cAMP) and fluorescence donor (anti-cAMP antibody labeled with europium cryptate) were added in the presence of 1 mM IBMX. After 60 minutes, the fluorescence corresponding to the amount of transfer residual cAMP was measured at λex=337 nm, λem=620 nm and λem=665 nm using a microplate reader (RubyStar, BMG). The enzyme activity was determined by the signal division measured at 665 nm, by the measured signal at 620 nm (right). The results were expressed as a inhibition percentage of the control enzyme activity. […]

PDE4A1A = target: T2, PDE4A1A (Homo sapiens, UniProt P27815); assay: PDE4A1A enzyme inhibition (HTRF, cAMP substrate); conditions: human recombinant enzyme (Sf9); FIGS. 14 and 15; test concentration not given
T2 construct: host or cells: Sf9
Text: as §1, §2

PDE7A = target: T3, PDE7A (Homo sapiens, UniProt Q13946); assay: PDE7A enzyme inhibition (HTRF, cAMP substrate); conditions: human recombinant enzyme (Sf9); FIGS. 14 and 15; test concentration not given
T3 construct: host or cells: Sf9
Text: as §1, §2

PDE2A1 = target: T4, PDE2A1 (Homo sapiens, UniProt O00408); assay: PDE2A1 enzyme inhibition (HTRF, cAMP substrate); conditions: human recombinant enzyme (Sf9); FIGS. 14 and 15; test concentration not given
T4 construct: host or cells: Sf9
Text: as §1, §2

T3 sequence (Q13946 whole entry): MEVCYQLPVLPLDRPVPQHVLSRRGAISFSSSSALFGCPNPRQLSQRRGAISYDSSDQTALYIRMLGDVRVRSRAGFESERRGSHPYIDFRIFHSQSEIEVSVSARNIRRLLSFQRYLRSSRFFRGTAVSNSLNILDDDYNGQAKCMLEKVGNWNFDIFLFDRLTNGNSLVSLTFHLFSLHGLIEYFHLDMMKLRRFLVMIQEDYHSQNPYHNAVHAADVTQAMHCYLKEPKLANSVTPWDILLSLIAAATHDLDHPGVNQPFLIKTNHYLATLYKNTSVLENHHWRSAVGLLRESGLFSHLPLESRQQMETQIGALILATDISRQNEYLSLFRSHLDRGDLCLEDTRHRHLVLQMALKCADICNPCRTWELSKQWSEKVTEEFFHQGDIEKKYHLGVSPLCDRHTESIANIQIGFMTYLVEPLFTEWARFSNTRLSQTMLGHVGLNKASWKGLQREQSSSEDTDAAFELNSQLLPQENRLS
T4 sequence (O00408 1-920 isoform O00408-2): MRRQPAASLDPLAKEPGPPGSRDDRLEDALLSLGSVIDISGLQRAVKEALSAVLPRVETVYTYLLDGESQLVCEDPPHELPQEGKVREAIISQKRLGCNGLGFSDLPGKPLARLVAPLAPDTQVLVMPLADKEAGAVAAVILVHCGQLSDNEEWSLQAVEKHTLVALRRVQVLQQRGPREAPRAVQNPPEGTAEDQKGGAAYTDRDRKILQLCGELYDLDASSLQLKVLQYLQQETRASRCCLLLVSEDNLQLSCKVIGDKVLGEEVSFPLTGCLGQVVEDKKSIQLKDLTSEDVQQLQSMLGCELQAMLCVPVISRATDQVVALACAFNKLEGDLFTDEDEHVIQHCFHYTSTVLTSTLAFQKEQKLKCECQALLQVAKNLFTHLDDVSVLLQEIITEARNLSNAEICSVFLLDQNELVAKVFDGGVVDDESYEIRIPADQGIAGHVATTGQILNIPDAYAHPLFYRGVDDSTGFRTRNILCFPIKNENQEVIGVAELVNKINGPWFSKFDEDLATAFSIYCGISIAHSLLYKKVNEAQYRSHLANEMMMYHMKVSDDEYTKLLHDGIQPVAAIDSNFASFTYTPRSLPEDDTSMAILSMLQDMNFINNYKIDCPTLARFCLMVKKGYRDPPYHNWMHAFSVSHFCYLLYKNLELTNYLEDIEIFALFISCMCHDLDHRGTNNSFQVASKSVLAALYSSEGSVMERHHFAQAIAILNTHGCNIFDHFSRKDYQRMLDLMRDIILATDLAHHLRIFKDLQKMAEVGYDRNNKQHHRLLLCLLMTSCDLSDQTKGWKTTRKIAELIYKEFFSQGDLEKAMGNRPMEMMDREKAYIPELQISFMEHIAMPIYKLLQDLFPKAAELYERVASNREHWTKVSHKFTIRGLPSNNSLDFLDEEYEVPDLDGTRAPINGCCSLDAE
T2 sequence (P27815 1-647 isoform P27815-4): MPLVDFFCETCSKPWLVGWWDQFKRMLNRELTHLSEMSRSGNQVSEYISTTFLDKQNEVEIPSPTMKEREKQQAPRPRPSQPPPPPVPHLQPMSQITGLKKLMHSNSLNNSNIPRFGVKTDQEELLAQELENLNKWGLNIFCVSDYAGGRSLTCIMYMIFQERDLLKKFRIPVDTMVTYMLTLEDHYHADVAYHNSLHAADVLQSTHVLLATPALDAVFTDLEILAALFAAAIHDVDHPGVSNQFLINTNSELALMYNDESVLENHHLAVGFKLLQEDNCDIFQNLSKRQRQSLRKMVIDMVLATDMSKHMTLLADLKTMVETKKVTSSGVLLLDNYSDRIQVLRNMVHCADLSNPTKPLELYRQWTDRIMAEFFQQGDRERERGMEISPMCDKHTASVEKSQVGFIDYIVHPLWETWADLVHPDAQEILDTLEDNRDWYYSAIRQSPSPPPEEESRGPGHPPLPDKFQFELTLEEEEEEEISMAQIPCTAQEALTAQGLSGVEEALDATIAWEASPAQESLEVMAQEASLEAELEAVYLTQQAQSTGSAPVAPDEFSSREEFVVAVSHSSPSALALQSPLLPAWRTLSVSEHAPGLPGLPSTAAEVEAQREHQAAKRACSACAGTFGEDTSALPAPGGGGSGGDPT
T1 sequence (Q9Y233 267-1055): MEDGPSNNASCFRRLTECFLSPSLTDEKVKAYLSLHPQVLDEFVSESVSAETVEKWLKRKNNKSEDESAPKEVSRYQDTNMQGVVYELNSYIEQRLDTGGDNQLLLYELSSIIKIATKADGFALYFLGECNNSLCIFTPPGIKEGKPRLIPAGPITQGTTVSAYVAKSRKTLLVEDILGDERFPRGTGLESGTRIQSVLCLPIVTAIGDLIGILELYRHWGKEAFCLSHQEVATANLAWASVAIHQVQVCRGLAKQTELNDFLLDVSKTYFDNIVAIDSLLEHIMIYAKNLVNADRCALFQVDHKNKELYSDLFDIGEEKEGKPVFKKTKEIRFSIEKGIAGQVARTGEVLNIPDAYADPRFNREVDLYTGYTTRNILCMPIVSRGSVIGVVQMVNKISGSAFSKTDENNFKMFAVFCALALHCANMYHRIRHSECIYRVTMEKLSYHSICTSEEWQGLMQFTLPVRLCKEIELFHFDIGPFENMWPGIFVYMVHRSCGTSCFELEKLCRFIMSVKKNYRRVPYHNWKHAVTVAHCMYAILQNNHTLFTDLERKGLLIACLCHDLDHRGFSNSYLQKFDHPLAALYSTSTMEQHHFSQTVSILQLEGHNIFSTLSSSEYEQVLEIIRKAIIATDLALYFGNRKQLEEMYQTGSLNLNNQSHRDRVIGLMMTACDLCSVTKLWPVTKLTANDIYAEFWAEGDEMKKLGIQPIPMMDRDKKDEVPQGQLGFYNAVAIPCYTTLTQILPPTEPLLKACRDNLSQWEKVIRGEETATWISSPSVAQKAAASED

O=C1C2=C(c3c[nH]c4ccccc34)OC(c3ccc4c(c3)OCO4)N2C(=O)CN1CCO (stereo not shown) [BL-230, 3-(benzo[d][1,3]dioxol-5yl)-7-(2-hydroxyethyl)-1-(1H-indol-3-yl)-6,7-dihydro-3H-oxazolo[3,4-a]pyrazine-5,8-dione]
inhibition of PDE10A2 enzyme activity (PDE10A2): 35% | inhibition of PDE4A1A enzyme activity (PDE4A1A): did not inhibit | inhibition of PDE7A enzyme activity (PDE7A): did not inhibit | inhibition of PDE2A1 enzyme activity (PDE2A1): did not inhibit

C[C@@H](CO)N1CC(=O)N2C(=C(c3c[nH]c4ccccc34)OC2c2ccc3c(c2)OCO3)C1=O (stereo partly drawn) [BL-236, 3-(benzo[d][1,3]dioxol-5yl)-7-((S)1-hydroxypropan-2yl)-1-(1H-indol-3-yl)-6,7-dihydro-3H-oxazolo[3,4-a]pyrazine-5,8-dione]
inhibition of PDE4A1A enzyme activity (PDE4A1A): did not inhibit | inhibition of PDE7A enzyme activity (PDE7A): did not inhibit | inhibition of PDE2A1 enzyme activity (PDE2A1): did not inhibit
